Experimental data published in patent US11566007B2, “Ras inhibitors” (Revolution Medicines, Inc., priority 2019, dated 2023).
pEC50, pIC50: −log10 of the molar value. Several values for one entry are separate records, joined by “and”; a condition that tells them apart may be missing. Equal entries are not always repeated. Where two headings read alike, the source gives them in different places.

What was measured:
[1] = test system: NCI-H358 cells (K-Ras G12C); test: Potency assay: pERK in NCI-H358 cells; assay type: cell-based, human; details: H358 KRAS G12C, read-out: pERK EC50
Outline: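 pERK decrease read by AlphaLISA SureFire p-ERK1/2 or In-Cell Western after 4 h compound exposure at 37 °C, 5% CO2.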

[2] = test system: NCI-H358 (K-Ras G12C); test: CellTiter-Glo cell viability assay, NCI-H358; assay type: cell-based, human; details: Homo sapiens, NCI-H358, 120 h, NCI-H358, 5-day treatment; class symbols; read-out: Additional H358 Cell Viability assay data (K-Ras G12C, IC50)
Outline: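 Cells seeded, compound added directly, 5-day exposure. Plates to RT ~30 min, CellTiter-Glo luminescence read. Normalized to DMSO avg (x100); 4-parameter logistic fit.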

[3] = target: K-Ras G12C (Homo sapiens (Human), UniProt P01116+P62937, G12C); test: Ras-Raf (BRAF RBD) disruption / FRET / MOA assay, KRAS G12C; assay type: biochemical; details: KRAS G12C; Ras-Raf disruption/FRET/MOA assay; read-out: IC50* KRAS G12C FRET data
Sequence of K-Ras G12C (P01116-2 other isoform, or with tags, fused parts or gaps G12C): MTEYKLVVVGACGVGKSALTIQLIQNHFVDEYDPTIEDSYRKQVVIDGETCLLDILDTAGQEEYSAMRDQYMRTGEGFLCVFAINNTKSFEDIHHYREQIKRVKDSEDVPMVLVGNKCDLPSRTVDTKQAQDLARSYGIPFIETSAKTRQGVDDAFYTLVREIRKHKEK
Sequence of K-Ras G12C (P62937 whole entry): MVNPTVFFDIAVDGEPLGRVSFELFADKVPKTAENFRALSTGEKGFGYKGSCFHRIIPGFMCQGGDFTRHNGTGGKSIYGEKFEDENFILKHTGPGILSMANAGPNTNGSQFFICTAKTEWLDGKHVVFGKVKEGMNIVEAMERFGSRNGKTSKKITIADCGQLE
Outline: (§1)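 Compounds, top final concentration 30 μM in 10-point 3-fold series, incubated 3 hours at 25° C with nucleotide-loaded Ras, cyclophilin A and BRAF RBD.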

[4] = target: K-Ras G13C (Homo sapiens (Human), UniProt P01116+P62937, G13C); test: Ras-Raf (BRAF RBD) disruption / FRET / MOA assay, KRAS G13C; assay type: biochemical; details: KRAS G13C; Ras-Raf disruption/FRET/MOA assay; read-out: IC50* KRAS G13C FRET data
Sequence of K-Ras G13C (P01116-2 other isoform, or with tags, fused parts or gaps G13C): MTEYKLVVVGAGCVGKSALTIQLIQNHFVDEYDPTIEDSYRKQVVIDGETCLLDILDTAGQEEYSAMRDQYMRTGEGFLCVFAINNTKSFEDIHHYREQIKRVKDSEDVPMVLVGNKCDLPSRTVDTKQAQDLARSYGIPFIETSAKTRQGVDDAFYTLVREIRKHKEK
Sequence of K-Ras G13C (P62937 whole entry): as the sequence (P62937 whole entry) above
Outline: as §1

[5] = target: KRAS G12S (Homo sapiens (Human), UniProt P01116+P62937, G12S); test: Ras-Raf (BRAF RBD) disruption / FRET / MOA assay, KRAS G12S; assay type: biochemical; details: Ras-Raf disruption/FRET/MOA assay; class symbols; read-out: KRAS G12S FRET data IC50
Sequence of KRAS G12S (P01116-2 other isoform, or with tags, fused parts or gaps G12S): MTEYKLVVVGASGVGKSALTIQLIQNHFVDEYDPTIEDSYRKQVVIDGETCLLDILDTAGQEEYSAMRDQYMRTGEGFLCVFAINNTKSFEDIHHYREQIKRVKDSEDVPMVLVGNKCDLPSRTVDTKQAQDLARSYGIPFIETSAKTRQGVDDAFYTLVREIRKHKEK
Sequence of KRAS G12S (P62937 whole entry): as the sequence (P62937 whole entry) above
Outline: as §1

[6] = target: KRAS G12D (Homo sapiens (Human), UniProt P01116+P62937, G12D); test: Ras-Raf (BRAF RBD) disruption / FRET / MOA assay, KRAS G12D; assay type: biochemical; details: Ras-Raf disruption/FRET/MOA assay; class symbols; read-out: KRAS G12D FRET data IC50
Sequence of KRAS G12D (P01116-2 other isoform, or with tags, fused parts or gaps G12D): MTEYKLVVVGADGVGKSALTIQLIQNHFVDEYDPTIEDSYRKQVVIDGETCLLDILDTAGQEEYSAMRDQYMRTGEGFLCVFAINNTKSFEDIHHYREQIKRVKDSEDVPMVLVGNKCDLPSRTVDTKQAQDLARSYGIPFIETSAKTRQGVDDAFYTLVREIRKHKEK
Sequence of KRAS G12D (P62937 whole entry): as the sequence (P62937 whole entry) above
Outline: as §1

[7] = target: KRAS G12V (Homo sapiens (Human), UniProt P01116+P62937, G12V); test: Ras-Raf (BRAF RBD) disruption / FRET / MOA assay, KRAS G12V; assay type: biochemical; details: read-out: IC50* KRAS G12V FRET data
Sequence of KRAS G12V (P01116-2 other isoform, or with tags, fused parts or gaps G12V): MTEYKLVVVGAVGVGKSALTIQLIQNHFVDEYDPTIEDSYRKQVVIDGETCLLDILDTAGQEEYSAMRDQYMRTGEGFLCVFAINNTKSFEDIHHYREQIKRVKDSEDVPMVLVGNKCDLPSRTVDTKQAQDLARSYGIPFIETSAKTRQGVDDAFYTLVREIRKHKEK
Sequence of KRAS G12V (P62937 whole entry): as the sequence (P62937 whole entry) above
Outline: as §1

[8] = target: KRAS WT (Homo sapiens (Human), UniProt P01116+P62937); test: Ras-Raf (BRAF RBD) disruption / FRET / MOA assay, KRAS WT; assay type: biochemical; details: read-out: IC50* KRAS WT FRET data
Sequence of KRAS WT (P01116-2 other isoform, or with tags, fused parts or gaps): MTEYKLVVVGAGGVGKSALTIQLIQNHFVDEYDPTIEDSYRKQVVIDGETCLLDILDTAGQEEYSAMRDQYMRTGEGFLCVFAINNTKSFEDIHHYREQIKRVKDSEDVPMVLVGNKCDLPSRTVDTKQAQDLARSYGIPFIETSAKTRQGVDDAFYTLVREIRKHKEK
Sequence of KRAS WT (P62937 whole entry): as the sequence (P62937 whole entry) above
Outline: as §1

[9] = target: KRAS G13D (Homo sapiens (Human), UniProt P01116+P62937, G13D); test: Ras-Raf (BRAF RBD) disruption / FRET / MOA assay, KRAS G13D; assay type: biochemical; details: read-out: IC50* KRAS G13D FRET data
Sequence of KRAS G13D (P01116-2 other isoform, or with tags, fused parts or gaps G13D): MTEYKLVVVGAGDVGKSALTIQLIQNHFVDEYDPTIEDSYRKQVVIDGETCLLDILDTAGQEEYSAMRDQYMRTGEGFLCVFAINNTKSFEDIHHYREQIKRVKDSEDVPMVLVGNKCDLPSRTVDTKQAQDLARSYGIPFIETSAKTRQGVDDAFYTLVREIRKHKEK
Sequence of KRAS G13D (P62937 whole entry): as the sequence (P62937 whole entry) above
Outline: as §1

[10] = target: NRAS G12C (Homo sapiens (Human), UniProt P01111+P62937, G12C); test: Ras-Raf (BRAF RBD) disruption / FRET / MOA assay, NRAS G12C; assay type: biochemical; details: read-out: IC50* NRAS G12C FRET data
Sequence of NRAS G12C (P01111 whole entry G12C): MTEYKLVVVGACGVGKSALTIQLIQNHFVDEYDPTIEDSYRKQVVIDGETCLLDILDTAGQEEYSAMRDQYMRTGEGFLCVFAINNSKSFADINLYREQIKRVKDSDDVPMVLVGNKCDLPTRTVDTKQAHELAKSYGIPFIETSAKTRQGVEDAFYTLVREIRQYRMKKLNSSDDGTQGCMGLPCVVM
Sequence of NRAS G12C (P62937 whole entry): as the sequence (P62937 whole entry) above
Outline: as §1

Row | Structure (SMILES) | pEC50 ([1]; Homo sapiens, NCI-H358) | pIC50 [2] | pIC50 [3] | pIC50 [4] | pIC50 [5] | pIC50 [6] | pIC50 [7] | pIC50 [8] | pIC50 [9] | pIC50 [10] | pEC50 [1]
1 | CCn1c(-c2cccnc2[C@H](C)OC)c2c3cc(ccc31)-c1nsc(n1)C[C@H](NC(=O)[C@H](C(C)C)N(C)C(=O)[C@H]1CCN(C(=O)C#CCN3CCOCC3)C1)C(=O)N1CCC[C@H](N1)C(=O)OCC(C)(C)C2 (atropisomer, axis not shown) [Example A201] | > 5.30 | 7.00 to 8.00 | 7.00 to 8.00 | 5.00 to 6.00 | < 5.00 | < 5.00 | < 5.00 | < 5.00 | < 5.00 | 6.00 to 7.00 | –
2 | C=CC(=O)N1CC[C@H](C(=O)N(C)[C@H](C(=O)NN2Cc3cc(O)cc(c3)-c3ccc4c(c3)c(c(-c3cccnc3[C@H](C)OC)n4CC)CC(C)(C)COC(=O)[C@@H]3CCCN(N3)C2=O)C(C)C)C1 (atropisomer, axis not shown) [Example A233] | > 5.30 | 7.00 to 8.00 | 7.00 to 8.00 | 7.00 to 8.00 | 7.00 to 8.00 | 6.00 to 7.00 | 7.00 to 8.00 | 7.00 to 8.00 | 6.00 to 7.00 | 7.00 to 8.00 | –
3 | CCn1c(-c2cccnc2[C@H](C)OC)c2c3cc(ccc31)-c1cc(O)cc(c1)C[C@H](NC(=O)[C@H](C(C)C)N(C)C(=O)[C@H]1CCN(C(=O)C#CCN3[C@@H](C)COC[C@@H]3C)C1)C(=O)N1CCC[C@H](N1)C(=O)OCC(C)(C)C2 (atropisomer, axis not shown) [Example A244] | > 5.30 | > 8.00 | > 8.00 | 7.00 to 8.00 | 6.00 to 7.00 | 5.00 to 6.00 | 6.00 to 7.00 | 6.00 to 7.00 | 6.00 to 7.00 | > 8.00 | –
4 | CCn1c(-c2cccnc2[C@H](C)OC)c2c3cc(ccc31)-c1cc(O)cc(c1)C[C@H](NC(=O)[C@H](C(C)C)N(C)C(=O)[C@H]1CCN(C(=O)C#CCN3[C@H](C)COC[C@@H]3C)C1)C(=O)N1CCC[C@H](N1)C(=O)OCC(C)(C)C2 (atropisomer, axis not shown) [Example A245] | > 5.30 | > 8.00 | > 8.00 | 7.00 to 8.00 | 6.00 to 7.00 | 5.00 to 6.00 | 7.00 to 8.00 | 6.00 to 7.00 | 6.00 to 7.00 | > 8.00 | –
5 | CCn1c(-c2cccnc2[C@H](C)OC)c2c3cc(ccc31)-c1cc(O)cc(c1)C[C@H](NC(=O)[C@H](C(C)C)N(C)C(=O)[C@H]1CCN(C(=O)C#C[C@@H]3CCCN3C)C1)C(=O)N1CCC[C@H](N1)C(=O)OCC(C)(C)C2 (atropisomer, axis not shown) [Example A247] | > 5.30 | 7.00 to 8.00 | > 8.00 | 7.00 to 8.00 and > 8.00 | 6.00 to 7.00 and 5.00 to 6.00 | 5.00 to 6.00 and 6.00 to 7.00 | 6.00 to 7.00 and 5.00 to 6.00 | 6.00 to 7.00 and 5.00 to 6.00 | 6.00 to 7.00 and 5.00 to 6.00 | > 8.00 | –
6 | CCn1c(-c2cccnc2[C@H](C)OC)c2c3cc(ccc31)-c1cc(O)cc(c1)C[C@H](NC(=O)[C@H](C(C)C)N(C)C(=O)c1ccc(NC(=O)/C=C/CN(C)C)nc1)C(=O)N1CCC[C@H](N1)C(=O)OCC(C)(C)C2 (atropisomer, axis not shown) [Example A249] | > 5.30 | 6.00 to 7.00 | 6.00 to 7.00 | 7.00 to 8.00 | 5.00 to 6.00 | < 5.00 | 5.00 to 6.00 | 5.00 to 6.00 | 5.00 to 6.00 | 6.00 to 7.00 | –
7 | C=CC(=O)Nc1ccc(C(=O)N(C)[C@H](C(=O)N[C@H]2Cc3cc(O)cc(c3)-c3ccc4c(c3)c(c(-c3cccnc3[C@H](C)OC)n4CC)CC(C)(C)COC(=O)[C@@H]3CCCN(N3)C2=O)C(C)C)cn1 (atropisomer, axis not shown) [Example A250] | > 5.30 | 7.00 to 8.00 | 7.00 to 8.00 | 7.00 to 8.00 and > 8.00 | 6.00 to 7.00 and 5.00 to 6.00 | 5.00 to 6.00 and < 5.00 | 6.00 to 7.00 and < 5.00 | 6.00 to 7.00 and 5.00 to 6.00 | 6.00 to 7.00 and < 5.00 | 7.00 to 8.00 and > 8.00 | –
8 | CCn1c(-c2cccnc2[C@H](C)OC)c2c3cc(ccc31)-c1cc(O)cc(c1)C[C@H](NC(=O)[C@H](C(C)C)N(C)C(=O)c1ncc(NC(=O)/C=C/CN(C)C)s1)C(=O)N1CCC[C@H](N1)C(=O)OCC(C)(C)C2 (atropisomer, axis not shown) [Example A253] | > 5.30 | 6.00 to 7.00 | 7.00 to 8.00 | > 8.00 | 5.00 to 6.00 | 5.00 to 6.00 | 6.00 to 7.00 | 6.00 to 7.00 | 6.00 to 7.00 | 6.00 to 7.00 | –
9 | C=CC(=O)Nc1cnc(C(=O)N(C)[C@H](C(=O)N[C@H]2Cc3cc(O)cc(c3)-c3ccc4c(c3)c(c(-c3cccnc3[C@H](C)OC)n4CC)CC(C)(C)COC(=O)[C@@H]3CCCN(N3)C2=O)C(C)C)s1 (atropisomer, axis not shown) [Example A254] | > 5.30 | 6.00 to 7.00 | 6.00 to 7.00 | 7.00 to 8.00 | 5.00 to 6.00 | 5.00 to 6.00 | 5.00 to 6.00 | 6.00 to 7.00 | 5.00 to 6.00 | 6.00 to 7.00 | –
10 | C=CC(=O)Nc1cnc(C(=O)N(C)[C@H](C(=O)N[C@H]2Cc3cc(O)cc(c3)-c3ccc4c(c3)c(c(-c3cccnc3[C@H](C)OC)n4CC)CC(C)(C)COC(=O)[C@@H]3CCCN(N3)C2=O)C(C)C)n1C (atropisomer, axis not shown) [Example A255] | – | > 8.00 | > 8.00 | > 8.00 | 7.00 to 8.00 | 6.00 to 7.00 | 6.00 to 7.00 | 6.00 to 7.00 | 6.00 to 7.00 | > 8.00 | > 5.30
11 | C=CC(=O)N1CC(C(=O)N(C)[C@H](C(=O)N[C@H]2Cc3cc(O)cc(c3)-c3ccc4c(c3)c(c(-c3cccnc3[C@H](C)OC)n4CC)CC(C)(C)COC(=O)[C@@H]3CCCN(N3)C2=O)C(C)C)C1 (atropisomer, axis not shown) [Example A256] | > 5.30 | > 8.00 | > 8.00 | 7.00 to 8.00 | 7.00 to 8.00 | 6.00 to 7.00 | 6.00 to 7.00 | 7.00 to 8.00 | 6.00 to 7.00 | 7.00 to 8.00 | –
12 | CCn1c(-c2cccnc2[C@H](C)OC)c2c3cc(ccc31)-c1cc(O)cc(c1)C[C@H](NC(=O)[C@H](C(C)C)N(C)C(=O)C1CN(C(=O)/C=C/CN(C)C)C1)C(=O)N1CCC[C@H](N1)C(=O)OCC(C)(C)C2 (atropisomer, axis not shown) [Example A257] | > 5.30 | 7.00 to 8.00 | > 8.00 | 7.00 to 8.00 | 6.00 to 7.00 | 6.00 to 7.00 | 6.00 to 7.00 | 6.00 to 7.00 | 6.00 to 7.00 | > 8.00 | –
13 | C=CC(=O)Nc1csc(C(=O)N(C)[C@H](C(=O)N[C@H]2Cc3cc(O)cc(c3)-c3ccc4c(c3)c(c(-c3cccnc3[C@H](C)OC)n4CC)CC(C)(C)COC(=O)[C@@H]3CCCN(N3)C2=O)C(C)C)n1 (atropisomer, axis not shown) [Example A259] | > 5.30 | 6.00 to 7.00 | 6.00 to 7.00 | 7.00 to 8.00 | 5.00 to 6.00 | < 5.00 | 5.00 to 6.00 | 6.00 to 7.00 | 5.00 to 6.00 | 6.00 to 7.00 | –
14 | C=CC(=O)N1CCC(C(=O)N(C)[C@H](C(=O)N[C@H]2Cc3cc(O)cc(c3)-c3ccc4c(c3)c(c(-c3cccnc3[C@H](C)OC)n4CC)CC(C)(C)COC(=O)[C@@H]3CCCN(N3)C2=O)C(C)C)CC1 (atropisomer, axis not shown) [Example A260] | > 5.30 | > 8.00 | 7.00 to 8.00 | 7.00 to 8.00 | 7.00 to 8.00 | 6.00 to 7.00 | 6.00 to 7.00 | 7.00 to 8.00 | 7.00 to 8.00 | 7.00 to 8.00 | –
15 | CCn1c(-c2cccnc2[C@H](C)OC)c2c3cc(ccc31)-c1cc(O)cc(c1)C[C@H](NC(=O)[C@H](C(C)C)N(C)C(=O)N1CCN(C(=O)/C=C/CN(C)C)CC1)C(=O)N1CCC[C@H](N1)C(=O)OCC(C)(C)C2 (atropisomer, axis not shown) [Example A263] | > 5.30 | 6.00 to 7.00 | 7.00 to 8.00 | 7.00 to 8.00 | 6.00 to 7.00 | 6.00 to 7.00 | 6.00 to 7.00 | 7.00 to 8.00 | 7.00 to 8.00 | 7.00 to 8.00 | –
